From publication PMC5011342, “A high throughput drug screening assay to identify compounds that promote oligodendrocyte differentiation using acutely dissociated and purified oligodendrocyte precursor cells” (BMC Research Notes, 2016)
Like-named read-outs stand apart in the source and are kept apart here.

How the values were obtained:
[1] = tested on: acutely dissociated and purified rat OPCs; assay: Acute OL differentiation assay (MBP expression/cell, immunofluorescent image quantification); assay type: cell-based
Outline: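 Oligodendrocyte precursor cells were enriched from P6-P7 Sprague–Dawley rat brains by immunopanning (RAN-2 and GalC depletion, O4 selection), plated at 5000 cells/well in serum-free, mitogen-free differentiation media on PDL/laminin 96-well view plates, centrifuged at 200×g, and pre-incubated 1–2 h before test compounds were added in quadruplicate. On DIV4, cells were fixed, stained for MBP and DAPI, imaged automatically, and MBP expression per cell was quantified.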

expanded OPCs = assay: cells; conditions: for viability at 0.1 µM / viability at 1 µM / viability at 10 µM: Rattus norvegicus, 72 h; for 0.1 µM (% DMSO) / 1 µM (% DMSO) / 10 µM (% DMSO): alamarBlue viability of expanded OPCs, relative to DMSO control; for 0.1 µM (% DMSO): compound at 0.1 µM; for 1 µM (% DMSO): compound at 1 µM; for 10 µM (% DMSO): compound at 10 µM
Outline: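 Expanded OPCs seeded at 10,000 cells/well in differentiation media, then exposed to NCC library compounds at 10, 1 and 0.1 µM (quadruplicate, 0.1% DMSO) for three days. Viability read as alamarBlue fluorescence (560/590 nm) after 4 h at 37 °C; tunicamycin 5 ng/ml served as toxicity control.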

[2] = Rattus norvegicus, 0.4 uM test compound, relative to quetiapine, sheet "All OLga data", read-out: OL differentiation, 0.4 uM (% Quet)
[3] = Rattus norvegicus, 2 uM test compound, relative to quetiapine, sheet "All OLga data", read-out: OL differentiation, 2 uM (% Quet)
[4] = read-out: 0.1 µM (% DMSO), alamarBlue viability of expanded OPCs, compound at 0.1 µM, sheet All Tox data
[5] = read-out: 1 µM (% DMSO), alamarBlue viability of expanded OPCs, compound at 1 µM, sheet All Tox data
[6] = read-out: 10 µM (% DMSO), alamarBlue viability of expanded OPCs, compound at 10 µM, sheet All Tox data
[7] = Rattus norvegicus, 10 uM test compound, relative to quetiapine, sheet "All OLga data", read-out: OL differentiation, 10 uM (% Quet)
[8] = Rattus norvegicus, test compound at 2 uM, NCC library screen, sheet "All OLga data", relative to quetiapine, read-out: 2 uM (% Quet)
[9] = Rattus norvegicus, test compound at 10 uM, NCC library screen, sheet "All OLga data", relative to quetiapine, read-out: 10 uM (% Quet)
[10] = read-out: 0.1 µM (% DMSO), alamarBlue viability, NCC library compound at 0.1 µM, sheet "All Tox data"
[11] = read-out: 1 µM (% DMSO), alamarBlue viability, NCC library compound at 1 µM, sheet "All Tox data"
[12] = read-out: 10 µM (% DMSO), alamarBlue viability, NCC library compound at 10 µM, sheet "All Tox data"
[13] = Rattus norvegicus, test compound at 0.4 uM, NCC library screen, sheet "All OLga data", relative to quetiapine, read-out: 0.4 uM (% Quet)
[14] = Rattus norvegicus, 0.08 uM test compound, relative to quetiapine, sheet "All OLga data", read-out: OL differentiation, 0.08 uM (% Quet)
[15] = Rattus norvegicus, test compound at 2 uM, MBP expression relative to quetiapine, NCC library screen, sheet "All OLga data", read-out: 2 uM (% Quet)
[16] = Rattus norvegicus, test compound at 10 uM, MBP expression relative to quetiapine, NCC library screen, sheet "All OLga data", read-out: 10 uM (% Quet)

SMILES | activation at 2 µM [1, 3] | viability at 0.1 µM (expanded OPCs; [4]) | viability at 1 µM (expanded OPCs; [5]) | viability at 10 µM (expanded OPCs; [6]) | activation at 2 µM [1, 8] | activation at 10 µM [1, 9] | viability at 0.1 µM (expanded OPCs; [10]) | viability at 1 µM (expanded OPCs; [11]) | viability at 10 µM (expanded OPCs; [12]) | also measured
CCc1nn(CCCN2CCN(c3cccc(Cl)c3)CC2)c(=O)n1CCOc1ccccc1 [Nefazodone] | 0.4% | 99.6% | 111% | 42.8% | – | – | – | – | – | activation at 0.4 µM [1, 2]: -5.2%
Cc1c(O)cccc1C(=O)N[C@@H](CSc1ccccc1)[C@H](O)CN1C[C@H]2CCCC[C@H]2C[C@H]1C(=O)NC(C)(C)C [Nelfinavir] | -84.5% | 100% | 59% | 11.3% | – | – | – | – | – | activation at 0.4 µM [1, 2]: -21.8%
Cc1ccnc2c1NC(=O)c1cccnc1N2C1CC1 [Nevirapine] | 0.24% | 93.7% | 90.2% | 93.3% | – | – | – | – | – | activation at 10 µM [1, 7]: 15.9%
O=C(O)c1cccnc1 [Niacin] | – | – | – | – | -3.6% | 3.6% | – | – | – | 0.1 µM (% DMSO) (expanded OPCs): 92.4 % DMSO; 1 µM (% DMSO) (expanded OPCs): 94.0 % DMSO; 10 µM (% DMSO) (expanded OPCs): 85.5 % DMSO
NC(=O)c1cccnc1 [Niacinamide] | – | – | – | – | -37.7% | -38.5% | 90.4% | 91% | 80.9% | –
O=C(CCNNC(=O)c1ccncc1)NCc1ccccc1 [Nialamide] | – | – | – | – | 2.8% | 14.8% | 95% | 96.2% | 91.7% | –
COC(=O)C1=C(C)NC(C)=C(C(=O)OCCN(C)Cc2ccccc2)C1c1cccc([N+](=O)[O-])c1 (stereo not shown) [Nicardipine] | – | – | – | – | – | – | 85.3% | 51.8% | 14.3% | activation at 0.08 µM ([1]; Rattus norvegicus, test compound at 0.08 uM, NCC library screen, sheet "All OLga data", relative to quetiapine, read-out: 0.08 uM (% Quet)): 8.8%; activation at 0.4 µM [1, 13]: -29%
O=C(NCCO[N+](=O)[O-])c1cccnc1 [Nicorandil] | – | – | – | – | 14.7% | 3.2% | 92.6% | 85.6% | 82.2% | –
CN1CCC[C@H]1c1cccnc1 [Nicotine] | – | – | – | – | – | – | – | – | – | activation at 2 µM ([1]; Rattus norvegicus, read-out: 2 uM (% Quet)): 12.3%; activation at 10 µM ([1]; Rattus norvegicus, read-out: 10 uM (% Quet)): 10.9%; viability at 0.1 µM (expanded OPCs; read-out: 0.1 µM (% DMSO)): 92.9%; viability at 1 µM (expanded OPCs; read-out: 1 µM (% DMSO)): 89.4%; viability at 10 µM (expanded OPCs; read-out: 10 µM (% DMSO)): 93.5%
OCc1cccnc1 [Nicotinyl Alcohol] | – | – | – | – | -9.3% | -3.3% | 88.5% | 90.1% | 89.3% | –
Cn1c(NCCN(CCO)CCCc2ccc([N+](=O)[O-])cc2)cc(=O)n(C)c1=O [Nifekalant] | -9.4% | 94.4% | 97.6% | 109% | – | – | – | – | – | activation at 10 µM [1, 7]: 6%
CN1C(=O)CN=C(c2ccccc2)c2cc([N+](=O)[O-])ccc21 [Nimetazepam] | 6.5% | – | – | – | – | – | 89.5% | 82.8% | 81.8% | activation at 10 µM [1, 7]: -0.15%
COCCOC(=O)C1=C(C)NC(C)=C(C(=O)OC(C)C)C1c1cccc([N+](=O)[O-])c1 (stereo not shown) [Nimodipine] | – | – | – | – | 4.8% | – | 88% | 87.4% | 54.5% | activation at 0.4 µM [1, 13]: -13.1%
COC(=O)C1=C(C)NC(C)=C(C(=O)OCC(C)C)C1c1ccccc1[N+](=O)[O-] (stereo not shown) [Nisoldipine] | – | 94.2% | 11.9% | 11.4% | – | – | – | – | – | activation at 0.08 µM [1, 14]: -23.7%; activation at 0.4 µM [1, 2]: -133%
CN(C)CCCC1(c2ccc(F)cc2)OCc2cc(C#N)ccc21 (stereo not shown) [Nitalapram, reference compound] | 33% | 85.9% | 101% | 110% | 37.5% | 38.6% | 95.9% | 94.9% | 91.9% | activation at 10 µM [1, 7]: 46.5%; activation at 2 µM [1, 15]: 30.4%; activation at 10 µM [1, 16]: 6.5%; EC50 ([1]; Rattus norvegicus, average EC50 for induction of OL differentiation from independent biological replicates, eight concentrations): 1.1 µM; hit in OL differentiation assay, MRF-TMC ([1]; ● = confirmed hit in this paper's assay): ●; 0.1 µM (% DMSO) (expanded OPCs): 107.3 % DMSO; 1 µM (% DMSO) (expanded OPCs): 108.9 % DMSO; 10 µM (% DMSO) (expanded OPCs): 99.4 % DMSO
CC(=O)Oc1ccccc1C(=O)Nc1ncc([N+](=O)[O-])s1 [Nitazoxanide] | -75.9% | – | – | – | – | – | 91% | 96.5% | 55.7% | –
O=C1CN=C(c2ccccc2)c2cc([N+](=O)[O-])ccc2N1 [Nitrazepam] | 7.3% | 84.2% | 88.9% | 95% | – | – | – | – | – | activation at 10 µM [1, 7]: -25.3%
CCOC(=O)C1=C(C)NC(C)=C(C(=O)OC)C1c1cccc([N+](=O)[O-])c1 (stereo not shown) [Nitrendipine] | -27% | 104% | 90.7% | 35.6% | – | – | – | – | – | activation at 0.4 µM [1, 2]: -4.7%
O=C1CN(/N=C/c2ccc([N+](=O)[O-])o2)C(=O)N1 [Nitrofurantoin] | – | – | – | – | -26.2% | -72.2% | – | – | – | 0.1 µM (% DMSO) (expanded OPCs): 101.2 % DMSO; 1 µM (% DMSO) (expanded OPCs): 101.9 % DMSO; 10 µM (% DMSO) (expanded OPCs): 87.2 % DMSO
CNC(=C[N+](=O)[O-])NCCSCc1csc(CN(C)C)n1 [Nizatidine] | -1.7% | 92.6% | 89% | 96.6% | – | – | – | – | – | activation at 10 µM [1, 7]: 13%
COc1ccc(-c2cc(=O)c3c(OC)c(OC)c(OC)c(OC)c3o2)cc1OC [Nobiletin] | – | 76.3% | 28.1% | 28.1% | – | – | – | – | – | activation at 0.08 µM [1, 14]: 8.4%; activation at 0.4 µM [1, 2]: -28.4%
NC[C@H](O)c1ccc(O)c(O)c1 [Norepinephrine] | – | – | – | – | – | – | – | – | – | activation at 2 µM [1, 15]: -1.9%; activation at 10 µM [1, 16]: -78%; 0.1 µM (% DMSO) (expanded OPCs): 99.4 % DMSO; 1 µM (% DMSO) (expanded OPCs): 99.0 % DMSO; 10 µM (% DMSO) (expanded OPCs): 68.5 % DMSO
